Results on 3 molecules are retold here after publication PMC11783063, “Design, synthesis, and apoptotic antiproliferative action of new benzimidazole/1,2,3-triazole hybrids as EGFR inhibitors” (Frontiers in Chemistry, 2025).

The structures appear in SMILES notation.

The target of one test is EGFR (Homo sapiens, UniProt P00533). Also noted: method as in Ihmaid et al., 2021. The settings on record: ref Ihmaid et al., 2021; read-out: EGFR inhibition IC50; cited from earlier work.
Test [1] deals with leukemia subpanel of 60 human carcinoma cell lines. Also noted: method as in Youssif et al., 2024. The settings on record: NCI five-dose, ref Youssif et al., 2024; cited from earlier work.
A further test concerns Bcl-2. Nature of the test: Bcl-2 inhibition assay in MCF-7 cells. It is filed as cell-based, human. On the procedure: (§1) The current study supplied compounds 6i and 10e to breast (MCF-7) cancer cell lines at their respective IC50 values. This led to a notable elevation of pro-apoptotic Bax expression, with a fold increase of 34 for compound 6i and 36 for compound 10e.
(§2) Compounds 6i and 10e were assessed for their ability to activate caspase-3, caspase-8, and Bax, as well as to downregulate the anti-apoptotic protein Bcl2 in the MCF-7 breast cancer cell line ([Abdelbaset et al., 2019]). Supplementary Appendix A provides more details.
Mix all the reagents thoroughly without foaming before use. Wash the microwells twice with approximately 300 μL Wash Buffer per well with thorough aspiration of microwell contents between washes. Take caution not to scratch the surface of the microwells. After the last wash, empty the wells and tap microwell strips on an absorbent pad or paper towel to remove excess Wash Buffer. Use the microwell strips immediately after washing or place upside down on a wet absorbent paper for not longer than 15 minutes. […] Add 100 μL of Sample Diluent in duplicate to all standard wells and to the blank wells. Prepare standard (1:2 dilution) in duplicate ranging from 32 ng/mL to 0.5 ng/mL. Add 100 μL of Sample Diluent, in duplicate, to the blank wells. Add 80 μL of Sample Diluent, in duplicate, to the sample wells. Add 20 μL of each Sample, in duplicate, to the designated wells. Add 50 μL of diluted biotin-conjugate to all wells, including the blank wells. Cover with a plate cover and incubate at room temperature, on a microplate shaker at 100 rpm if available, for 2 hours. Remove plate cover and empty the wells. Wash microwell strips 3 times as described in step 2. Add 100 μL of diluted Streptavidin-HRP to all wells, including the blank wells. Cover with a plate cover and incubate at room temperature, on a microplate shaker at 100 rpm if available, for 1 hour. Remove the plate cover and empty the wells. Wash microwell strips 3 times as described in step 2. Proceed to the next step. Pipette 100 μl of mixed TMB Substrate Solution to all wells, including the blanks. Incubate the microwell strips at room temperature (18° to 25°C) for about 15 minutes, if available on a rotator set at 100 rpm. Avoid direct exposure to intense light. The point, at which the substrate reaction is stopped, is often determined by the ELISA reader. Many ELISA readers record absorbance only up to 2.0 O.D. Therefore, the color development within individual microwells must be watched by the person running the assay and the substrate reaction stopped before positive wells are no longer properly detectable. Stop the enzyme reaction by quickly pipetting 100 μL of Stop Solution into each well, including the blank wells. It is important that the Stop Solution is spread quickly and uniformly throughout the microwells to completely inactivate the enzyme. Results must be read immediately after the Stop Solution is added or within one hour if the microwell strips are stored at 2 - 8°C in the dark. Read the absorbance of each microwell on a spectrophotometer using 450 nm as the primary wavelength.

Another test relates to caspase-3. Nature of the test: Caspase-3 activation assay in MCF-7 cells. It is filed as cell-based, human. As to conditions: vs untreated control. From the text:
(§3) Cells experience apoptosis in reaction to specific signaling cues, resulting in significant modifications. […] They decompose vital cellular components, including nuclear proteins, such as DNA repair enzymes and structural proteins within the cytoskeleton, essential for optimal cellular function.
(§4) Supplementary Appendix A provides more details.
Allow all reagents to reach room temperature before use. Gently mix all liquid reagents prior to use. Determine the number of 8-well strips needed for the assay. Insert these in the frame(s) for current use. Add 100 μl of the Standard Diluent Buffer to the zero standard wells. Well(s) reserved for chromogen blank should be left empty. Add 100 μl of standards and controls or diluted samples to the appropriate microtiter wells. The sample dilution chosen should be optimized for each experimental system. Tap gently on the side of plate to mix. Cover wells with plate cover and incubate for 2 hours at room temperature. Thoroughly aspirate or decant solution from wells and discard the liquid, Wash wells 4 times. […] Tap gently on the side of the plate to mix. Cover plate with plate cover and incubate for 1 hour at room temperature. Thoroughly aspirate or decant solution from wells and discard the liquid, Wash wells 4 times. Add 100 μl Anti-Rabbit IgG HRP Working Solution to each well except the chromogen blank(s). Prepare the working dilution as described in Preparing IgG HRP. Cover wells with the plate cover and incubate for 30 minutes at room temperature. Thoroughly aspirate or decant solution from wells and discard the liquid. Wash wells 4 times. Add 100 μl of Stabilized Chromogen to each well. The liquid in the wells will begin to turn blue. Incubate for 30 minutes at room temperature and in the dark. The incubation time for chromogen substrate is often determined by the microtiter plate reader used. […] The O.D. values should be monitored, and the substrate reaction stopped before the O.D. of the positive wells exceeds the limits of the instrument. The O.D. values at 450 nm can only be read after the Stop Solution has been added to each well. […] Add 100 μl of Stop Solution to each well. Tap side of plate gently to mix. The solution in the wells should change from blue to yellow. Read the absorbance of each well at 450 nm having blanked the plate reader against a chromogen blank composed of 100 μl each of Stabilized Chromogen and Stop Solution. Read the plate within 2 hours after adding the Stop Solution. Use a curve fitting software to generate the standard curve. […] Read the concentrations for unknown samples and controls from the standard curve. Multiply value(s) obtained for sample(s) by the appropriate dilution factor to correct for the dilution in step 3.

The next test relates to caspase-8. The experiment in a line: Caspase-8 activation assay in MCF-7 cells. It is filed as cell-based, human. As to the method:
as §3, §4
The absorbance of each microwell was read on a spectrophotometer at 450 nm. A standard curve is prepared from 7human Caspase-8 standard dilutions and human Caspase-8 concentration determined.

The next test relates to Bax. The experiment in a line: Bax activation assay in MCF-7 cells. It is filed as cell-based, human. On the procedure: as §1, §2
Bring all reagents, except the human Bax-α Standard, to room temperature for at least 30 minutes prior to opening. The human Bax-α Standard solution should not be left at room temperature for more than 10 minutes. All standards, controls and samples should be run in duplicate. Refer to the Assay Layout Sheet to determine the number of wells to be used and put any remaining wells with the desiccant back into the pouch and seal the ziploc. Store unused wells at 4 °C. Pipet 100 μL of Assay Buffer into the S0 (0 pg/mL standard) wells. Pipet 100 μL of Standards #1 through #6 into the appropriate wells. Pipet 100 μL of the Samples into the appropriate wells. Tap the plate gently to mix the contents. Seal the plate and incubate at room temperature on a plate shaker for 1 hour at ~500 rpm. Empty the contents of the wells and wash by adding 400 μL of wash solution to every well. Repeat the wash 4 more times for a total of 5 washes. After the final wash, empty or aspirate the wells and firmly tap the plate on a lint free paper towel to remove any remaining wash buffer. Pipet 100 μL of yellow Antibody into each well, except the Blank. Seal the plate and incubate at room temperature on a plate shaker for 1 hour at ~500 rpm. Empty the contents of the wells and wash by adding 400 μL of wash solution to every well. Repeat the wash 4 more times for a total of 5 washes. After the final wash, empty or aspirate the wells and firmly tap the plate on a lint free paper towel to remove any remaining wash buffer. Add 100 μL of blue Conjugate to each well, except the Blank. Seal the plate and incubate at room temperature on a plate shaker for 30 minutes at ~500 rpm. Empty the contents of the wells and wash by adding 400 μL of wash solution to every well. Repeat the wash 4 more times for a total of 5 washes. After the final wash, empty or aspirate the wells and firmly tap the plate on a lint free paper towel to remove any remaining wash buffer. Pipet 100 μL of Substrate Solution into each well. Incubate for 30 minutes at room temperature on a plate shaker at ~500 rpm. Pipet 100 μL Stop Solution to each well. Blank the plate reader against the Blank wells, read the optical density at 450 nm. Calculate the average net Optical Density (OD) bound for each standard and sample by subtracting the average Blank OD from the average OD for each standard and sample. Using linear graph paper, plot the Average Net OD for each standard versus Bax concentration in each standard. Approximate a straight line through the points. The concentration of Bax in the unknowns can be determined by interpolation.

One may read the IC50 as the point on the concentration scale where inhibition reaches its midpoint.

EGFR, sequence (P00533 669-1210): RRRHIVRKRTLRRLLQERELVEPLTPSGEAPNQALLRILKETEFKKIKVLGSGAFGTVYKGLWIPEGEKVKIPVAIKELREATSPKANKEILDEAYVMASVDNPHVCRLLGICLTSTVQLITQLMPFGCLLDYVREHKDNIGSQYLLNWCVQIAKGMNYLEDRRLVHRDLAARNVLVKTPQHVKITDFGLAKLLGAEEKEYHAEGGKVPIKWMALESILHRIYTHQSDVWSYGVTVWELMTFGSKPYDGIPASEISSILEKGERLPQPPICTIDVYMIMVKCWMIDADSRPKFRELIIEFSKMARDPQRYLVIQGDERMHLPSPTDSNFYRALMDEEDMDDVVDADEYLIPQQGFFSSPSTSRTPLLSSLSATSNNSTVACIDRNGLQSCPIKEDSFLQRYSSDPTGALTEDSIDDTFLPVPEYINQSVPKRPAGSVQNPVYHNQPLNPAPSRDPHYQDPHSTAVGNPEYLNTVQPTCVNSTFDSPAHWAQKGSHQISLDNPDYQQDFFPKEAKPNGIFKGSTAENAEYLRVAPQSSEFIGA

Take `Cc1ccc(NC(=O)Cn2cc(CN3C(=O)c4cc(Cl)c(Cl)cc4C3=O)nn2)cc1F` [III]: the IC50 on EGFR was 79 nM.

Take `O=C(N/N=C/c1ccc([N+](=O)[O-])cc1)c1ccc2[nH]c(-c3ccc(Cl)cc3)nc2c1` [I]: the “Selectivity ratio towards the leukemia subpanel at the GI50 level” value in test [1] is 5.96.

`CN[C@@H]1C[C@H]2O[C@@](C)([C@@H]1OC)n1c3ccccc3c3c4c(c5c6ccccc6n2c5c31)C(=O)NC4` [Staurosporine, reference compound]: in the test with Bcl-2 (compound at its IC50), the “Bcl-2 Conc” value is recorded as 1.20 ng/mL. Besides, the “Bcl-2 Fold reduction” value in the test with Bcl-2 (vs untreated control) is 4. Further, in the test on caspase-3, the “Caspase-3 Fold change” value is given as 7. The “Caspase-8 Conc” value in the test on caspase-8 (compound at its IC50 concentration) amounted to 1.50 ± 0.10 ng/mL. In addition, the “Caspase-8 Fold change” value in the test on caspase-8 (vs untreated control) was 17. Moreover, the “Bax Conc” value in the test on Bax (compound at its IC50) is 288 ± 2 pg/mL. The “Bax Fold change” value in the test on Bax (vs untreated control) was determined as 32.
